From patent publication US20130071931A1, “PROCESS FOR HEPATIC DIFFERENTIATION FROM INDUCED HEPATIC STEM CELLS, AND INDUCED HEPATIC PROGENITOR CELLS DIFFERENTIATED THEREBY” (NATIONAL CANCER CENTER, priority 2011, published 2013)

Key:
[1] = tested on: human induced hepatic stem cells AFB1-1; assay: AFP in culture supernatant (Example 13); assay type: cell-based; conditions: cell sample No. 835: 0.5 μM A-83-01/ReproStem (bFGF-free), no feeder cells, Matrigel
Source text: The medium was replaced everyday with a fresh human ES/iPS cell medium (mTeSR1) to continue culture until reaching 50-80% confluence per dish. […] The resultant cell sample is referred to as “No. 835”.

[2] = tested on: type I receptor for the osteogenic factor; conditions: cited from earlier work
[3] = tested on: human induced hepatic stem cells AFB1-1; assay: Quantitative RT-PCR of marker genes, hepatic differentiation on Matrigel (Examples 2-4); assay type: cell-based; conditions: no feeder cells, 13 days, No. 377 taken as 1
[4] = tested on: phosphorylation of Smad2/3; conditions: cited from earlier work
[5] = tested on: human induced hepatic stem cells AFB 1-1; assay: AFP in culture supernatant, suspension (three-dimensional) culture (Examples 6-10); assay type: cell-based; conditions: cell samples Nos. 473-475: suspension culture, ReproStem (bFGF-free)/Y-27632 5 μM, low-attachment plate, no feeder cells, 7 days after seeding; A-83-01 0.1 μM, OsM 10 ng/mL, DEX 0.1 μM where present
Protocol: The cell pellets were lysed in 1 mL/well of a QIAzol reagent (refer to Table 8B).
Six days after the seeding, the cells were recovered centrifugally and then suspended in 2 mL of a fresh ReproStem (bFGF-free)/Y-27632 (5 μM) supplemented with 10 ng/mL oncostatin M (OsM) and 0.1 μM dexamethasone (DEX), to continue hepatic differentiation culture in the above culture plate. […] The cell pellets were lysed in 1 mL/well of a QIAzol reagent (refer to Table 8B).

[6] = tested on: human induced hepatic stem cells AFB1-1; assay: AFP in culture supernatant, hepatic differentiation on Matrigel (Examples 2-4); conditions: no feeder cells, 13 days after seeding
p38 MAP kinase = conditions: cited from earlier work
[7] = tested on: human induced hepatic stem cells AFB1-1; assay: Quantitative RT-PCR, differentiation with TGF-β signaling inhibitors (Example 12); assay type: cell-based; conditions: cell samples Nos. 1545-1549: 0.5 μM inhibitor in ReproStem (bFGF-free), no feeder cells, Matrigel, 13 days after seeding
Protocol: The resultant cell samples are respectively referred to as “Nos. 1545-1549”. No. 1544 was cultured in the absence of any inhibitor. Nos. 1545-1549 were cultured in the presence of the following inhibitors, respectively.
Thirteen days after the seeding, the cells were lysed in 1 mL/well of a QIAzol reagent to prepare the total RNA from the cell lysate using the miRNeasy Mini Kit (Qiagen). The total RNA was subjected to quantitative RT-PCR using the iScript Advanced cDNA synthesis kit, the SsoAdvanced SYBR Green Supremix ([…]), and the CFX96 Real-Time System C1000 Thermal Cycler, all manufactured by Bio-Rad. The quantified genes were ALB, AAT, TTR, AFP, cytokeratin 7 (KRT7), cytokeratin 19 (KRT19), and DLK1 (Delta-like 1 homolog).

rat iPS cells = conditions: added to a rat iPS cell culture medium; cited from earlier work
[8] = tested on: TGF-β induced epithelial-mesenchymal transformation; conditions: cited from earlier work
[9] = tested on: human induced hepatic stem cells AFB1-1; assay: AFP in culture supernatant, collagen coat (Example 19); assay type: cell-based; conditions: no feeder cells
[10] = tested on: human induced hepatic stem cells AFB1-1; assay: AFP in culture supernatant (Example 18); assay type: cell-based; conditions: cell sample No. 705: A-83-01 (0.5 μM at start, 0.1 μM at medium changes)/ReproStem (bFGF-free), no feeder cells, Matrigel
[11] = tested on: extracellular signal regulated kinase; conditions: cited from earlier work
ALK 4 = conditions: cited from earlier work
[12] = cell sample No. 393: 0.1 μM A-83-01/mTeSR1 + 100 ng/mL bFGF
[13] = cell sample No. 394: 0.1 μM A-83-01/aFGF 10 ng/mL/ReproStem (bFGF-free)

## Cc1cccc(-c2nn(C(=S)Nc3ccccc3)cc2-c2ccnc3ccccc23)n1 [A-83-01, 3-(6-methyl-2-pyridinyl)-N-phenyl-4-(4-quinolinyl)-1H-pyrazolo-1-carbothioamide]
[1]; 6 days after the seeding
  AFP yield (culture supernatant): 6,430 ng/mL
[1]; 13 days after the seeding
  AFP yield (culture supernatant): 30,900 ng/mL
[2]
  effect on type I receptor for the osteogenic factor: little or no effect
[3]; [12]
  AAT expression level: 240
  AFP expression level: 1,791
  ALB expression level: 1,925
  DLK1 expression level: 404
  TTR expression level: 2,871
[3]; [13]
  AAT expression level: 3,812
  AFP expression level: 12,812
  AHSG expression level: 14,079
  ALB expression level: 45,698
  APOA4 expression level: 966
  DLK1 expression level: 804
  FABP1 expression level: 3,034
  FGG expression level: 10,138
  FOXA2 expression level: 0.19
  HGF expression level: 11
  HNF1A expression level: 0.88
  HNF4A expression level: 0.39
  KRT7 expression level: 37.5
  NANOG expression level: 0.01
  OCT3/4 (POU5F1) expression level: 0.07
  RBP4 expression level: 4,326
  SOX2 expression level: 0.08
  SOX17 expression level: 0.03
  TF expression level: 9,126
  TTR expression level: 9,113
[4]
  phosphorylation of Smad2/3: inhibits
[5]
  α-fetoprotein (AFP) in culture supernatant: 324 ng/mL
[6]; [12]
  α-fetoprotein (AFP) in culture supernatant: 3,120 ng/mL
[6]; [13]
  α-fetoprotein (AFP) in culture supernatant: 14,400 ng/mL
p38 MAP kinase
  effect on p38 MAP kinase: little or no effect
[7]
  AAT expression Ct value: 23.57
  AFP expression Ct value: 17.21
  ALB expression Ct value: 20.95
  DLK1 expression Ct value: 18.15
  KRT7 expression Ct value: 20.51
  KRT19 expression Ct value: 22.05
  TTR expression Ct value: 16.96
[7]; housekeeping gene
  GAPDH expression Ct value: 14.22
Rat iPS cells
  culture of rat iPS cells: allows uniform proliferation and prolonged culture of rat iPS cells without differentiation
[8]
  TGF-β induced epithelial-mesenchymal transformation: inhibits
[9]; cell sample No. 634: 0.1 μM A-83-01/ReproStem (bFGF-free), collagen plate without Matrigel, 6 days after the seeding
  AFP expression level (culture supernatant): 2,890 ng/mL
[9]; cell sample No. 634: 0.1 μM A-83-01/ReproStem (bFGF-free), collagen plate without Matrigel, 14 days after the seeding
  AFP expression level (culture supernatant): 24,900 ng/mL
[9]; cell sample No. 637: 0.1 μM A-83-01/ReproStem (bFGF-free), collagen plate coated with Matrigel, 6 days after the seeding
  AFP expression level (culture supernatant): 3,040 ng/mL
[9]; cell sample No. 637: 0.1 μM A-83-01/ReproStem (bFGF-free), collagen plate coated with Matrigel, 14 days after the seeding
  AFP expression level (culture supernatant): 30,000 ng/mL
[10]; 8 days after the seeding
  AFP expression level (culture supernatant): 5,540 ng/mL
[10]; 13 days after the seeding
  AFP expression level (culture supernatant): 2,320 ng/mL
[11]
  effect on the extracellular signal regulated kinase: little or no effect
ALK 4
  IC50: 12 nM
